Structures can show the parent of a compound that is named as a salt. Bridge positions count the residues as written; N and C are the ends. Square brackets hold non-standard residues; d marks the D form. Peptide text beside a SMILES is read from it. * marks the point of attachment. X1 = CC[C@H](C)CCCCC(=O)*; Dab = NCC[C@H](N)C(=O)O

The values that follow come from PMC12829161 (BMC Microbiology, 2025).

Type in all cases: cell-based, Pseudomonas aeruginosa
The test system of test [1] is PAO1 biofilm.
For test [2], the system named is PAO1 biofilm. This is another data set of the same source.
Test [3] deals with PA14 biofilm.
Test [4] relates to PA14 biofilm. This is another data set of the same source.

Take `CC[C@H](C)CCCCC(=O)N[C@@H](CCN)C(=O)N[C@H](C(=O)N[C@@H](CCN)C(=O)N[C@H]1CCNC(=O)[C@H]([C@@H](C)O)NC(=O)[C@H](CCN)NC(=O)[C@H](CCN)NC(=O)[C@H](CC(C)C)NC(=O)[C@@H](Cc2ccccc2)NC(=O)[C@H](CCN)NC1=O)[C@@H](C)O` [Polymyxin B, Polymyxin B sulfate] (X1-[Dab]T[Dab][Dab][Dab][dF]L[Dab][Dab]T; lactam 4-C (inferred); N-terminus assumed): the “Reduction of total growth (OD600) vs untreated control” value in test [1] was “at least 70%”. Also, in test [2], the “Biofilm viability (TTC), % of untreated control” value is listed as 65 (± 20) %; the “Concentration at which total bacterial growth (OD600) is significantly inhibited” value was 4 µg/mL; the “Increase in biofilm mass (CV) vs untreated control” value is on record as “over 200%”; the “Total bacterial growth (OD600), % of untreated control” value is reported as “approximately 170 (± 48) %”. For the same compound, in test [3], the “Biofilm inhibition (CV) at sub-MICs and MICs vs untreated control” value was “no significant biofilm inhibition”; the “Biofilm viability (TTC), % of untreated control” value is on record as “approximately 6 (±6) %”; the “Concentration at which total bacterial growth (OD600) is significantly inhibited” value is reported as 2 µg/mL; the “Increase in bacterial cells (total growth, OD600)” value is given as “No statistically significant increase”. Further, the “Reduction of total growth (OD600) vs untreated control” value in test [4] is “at least 70%”.
